Measurements from ChEMBL document CHEMBL3507680, “University of Dundee, Gates Library screen for HepG2 cell viability”.

Experiment: Human HepG2 cell viability assay in 384 well format
Assay type: toxicity, cell-based
Parameters: dose 125 nL, time 70.5 hour; concentration not given beside the values
Settings: HepG2 cells, read-out: Inhibition

Row | Structure (SMILES) | cytotoxicity at 70.5 h
1 | CCC1=NN2C(=N)/C(=C\c3cccn3-c3ccc(Cl)cc3)C(=O)N=C2S1 | 9.55%
2 | Cc1nn(C(=O)c2cccnc2)c(C)c1C | 27.4%
3 | COCC(=O)N1CCN2C(=O)OC[C@H]2C1 | 3.16%
4 | O=C1CO[C@H]2CN(Cc3ccc(F)c(F)c3)C[C@H]2N1 | -12.7%
5 | O=C1CO[C@H]2CN(Cc3ccc4c(c3)OCO4)C[C@H]2N1 | -7.08%
6 | c1ccc2c(Cc3nnc([C@H]4CCNC4)o3)c[nH]c2c1 | -2.38%
7 | Fc1ccc(-c2noc([C@@H]3Cc4nc[nH]c4CN3)n2)cc1 | -11.7%
8 | Cc1ccc(-c2noc([C@@H]3Cc4nc[nH]c4CN3)n2)cc1 | -11.9%
9 | CCNC(=O)NC[C@H]1COCc2nc3cc(C)ccc3n21 | -3.17%
10 | CCNC(=O)N1C[C@@H]2OCC(=O)N(C(C)C)[C@@H]2C1 | -0.389%
11 | COc1ccc(-c2cc(C[C@@H]3C[C@H](N(C)C)C3(C)C)no2)cc1 | 5.02%
12 | Cc1nn(CCC#N)c(C)c1[C@@H]1C=C[C@@H](NCc2ccc(F)cc2)C1 | -0.333%
13 | Cc1ccc(S(=O)(=O)Cc2noc([C@@H]3C[C@@H](O)CN3C(C)C)n2)cc1 | -8.79%
14 | CC1=C[C@@H](CC#N)[C@H](C(C)C)C[C@H]1CC(=O)N1CCN(CCO)CC1 | -8.18%
15 | COCC(=O)Nc1ccc(-c2noc([C@@H]3CCCN3C(C)C)n2)cn1 | -2.85%
16 | COCc1cc(C[C@@H]2CC[C@H](O)[C@@H](CNCC(C)C)O2)no1 | -0.483%
17 | O=C(Nc1ccccc1)[C@H]1O[C@H](CCN2CCCCC2)CC[C@@H]1O | -3.54%
18 | O=C1N(Cc2ccccn2)C[C@H]2CN(C3CCOCC3)CCN12 | -3.19%
19 | CC(C)(O)c1cc(CC2(NCC3CCCCC3)COC2)no1 | -16.3%
20 | CS(=O)(=O)NC[C@H]1OC[C@@H](NC2CCC(F)(F)CC2)[C@@H]1O | -5.87%
21 | O=C(NC[C@H]1OC[C@@H](NCc2ccccc2F)[C@@H]1O)Nc1ccccc1 | -3.35%
22 | CN(C)C[C@H]1O[C@H](Cc2cc(-c3ccccn3)on2)CC[C@@H]1O | -4.76%

Row | Structure (SMILES) | cytotoxicity at 70.5 h
23 | COc1cccc(CN2CCN3C(=O)NC[C@H]3C2)n1 | -7.27%
24 | Cc1ccc(CN2C[C@H](O)C[C@H]2c2nc(-c3ccc(F)cc3)no2)cc1 | -7.37%
25 | c1cnc2c(c1)nc1n2[C@@H](CNC2CCOCC2)COC1 | -4.98%
26 | CC(C)NC(=O)NC[C@H]1OC[C@@H](NCc2ccccc2F)[C@@H]1O | -4.73%
27 | Cc1cc2nc(CO[C@H]3CN(C4CCC4)C[C@H]3F)[nH]c2cc1C | -2.01%
28 | c1cn2c(n1)CO[C@@H](CNCc1ccc3c(c1)OCO3)C2 | -4.1%
29 | CC(C)N[C@@H]1CO[C@H](CNC(=O)Nc2ccccc2)[C@H]1O | -2.59%
30 | CC(=O)N1C[C@@H](F)[C@@H](OCc2nc3ccccc3o2)C1 | -3.68%
31 | COCCN1C[C@H]2CN(C(=O)c3ccc4c(c3)OCO4)CCN2C1=O | -3.46%
32 | COc1cc(OC)c2c(=O)oc(CC(O)CC(C)=O)cc2c1 (stereo not drawn) | 9.76%
33 | CCc1noc(-c2cccc(OCC(=O)NC(C)C)c2)n1 | -7.23%
34 | COCCNc1c(-c2ccc(C)cc2)c(=O)c1=O | -9.49%
35 | COCCCNc1c(-c2ccc(C)cc2)c(=O)c1=O | -6.65%
36 | CN(C)CCNc1c(-c2ccccc2)c(=O)c1=O | -1.53%
37 | COc1ccc(OC)c(NC(=O)c2c(C)cn(C)c2CC(=O)O)c1 | -5.28%
38 | CN1CCN(c2ccc(NS(=O)(=O)c3ccc(Br)s3)cc2C(=O)O)CC1 | 24%
39 | O=C(CCn1nc(C(=O)Nc2ccccc2)ccc1=O)Nc1nccs1 | 1.25%
40 | Cc1ccc2nc(CSCC(=O)Nc3nnc(C(C)C)s3)cc(=O)n2c1 | -6.09%
41 | Cc1ccc(-n2nc(C)c3c(C)cc(OCC(=O)NC(C)C)nc32)cc1 | -1.77%
42 | Cc1ccn(CCC(=O)NCc2ccc(C)o2)n1 | -1.65%
43 | Cc1nc(N2CCN(C)CC2)ncc1C(=O)N1CCN(C)CC1 | -4.76%
44 | CCOCCCNC(=O)NCc1c(C)nn(C)c1C | 22.3%

Row | Structure (SMILES) | cytotoxicity at 70.5 h
45 | Cn1nnc(NCc2ccccc2OCc2ccc(Cl)cc2)n1 | 29.2%
46 | CCN1C(=O)CCCC12CCCN(C(=O)c1sccc1C)C2 (stereo not drawn) | -9.33%
47 | CCN1C(=O)CCCC12CCCN(C(=O)c1occc1C)C2 (stereo not drawn) | -10.4%
48 | CCN1C(=O)CCCC12CCCN(C(=O)c1cc(C)oc1C)C2 (stereo not drawn) | -9.36%
49 | CC(=O)N1CCC2(C1)CN(C(=O)C1CCOC1)C2 (stereo not drawn) | -11.2%
50 | COCCNC(=O)c1ccc2ccc(N3CCN(CC4CC4)CC3)n2c1 | 24.5%
51 | CN1[C@H](CN2CCCC2)C[C@@H]2CN(C(=O)c3ccsc3)CC[C@@H]21 | 11.2%
52 | O=C(c1cscn1)N1CCC2(CCCN(CCOc3ccccc3)C2)C1 (stereo not drawn) | -19.6%
53 | Cc1ccc(CN2C[C@H]3C[C@H](C(=O)NCC4CC4)N(C)[C@H]3C2)o1 | -12.6%
54 | Cc1ccc(C(=O)N2CCC3(CCC(C(=O)NCC4CC4)O3)CC2)o1 (stereo not drawn) | -12.5%
55 | CC[C@@H]1N(Cc2cc(OC)cc(OC)c2)CCC[C@]12CCC(=O)N2C | -16.6%
56 | CN(C)CC(=O)N1CCC2(CC1)CN(Cc1cccnc1)C(=O)CO2 | 17.2%
57 | COCCN1CCC2(CCN(C(=O)c3ccc(F)cc3)CC2)C1=O | 18.4%
58 | O=C(NC1CC1)N1CC[C@@H](O)[C@@H]1Cc1ccccc1 | 0.741%
59 | NC(=O)N1CC[C@H](O)[C@@H]1Cc1ccccc1 | -8.95%
60 | CN(C)CCN1C(=O)CCC12CCN(C(=O)CC1CC1)CC2 | -6.33%
61 | COCCNC(=O)c1ccc2ccc(N(C)CC3CC3)n2c1 | -5.92%
62 | COCC(=O)N1CCN(C)c2ncccc2C1 | -0.482%
63 | CN(C)C(=O)N1CCN(C)c2ncccc2C1 | -7.19%
64 | Cc1csc([C@H]2C[C@@H]3CCN(Cc4cnn(C)c4)C[C@H]3O2)n1 | -7.09%
65 | O=C(c1cccs1)N1CCCn2c(nc(CN3CCCC3)cc2=O)C1 | -0.229%
66 | O=C(NC[C@@]1(COc2cnccn2)C[C@@H](O)[C@@H](O)C1)C1CC1 | 15%

Row | Structure (SMILES) | cytotoxicity at 70.5 h
67 | O=C(c1ccccc1F)N1CC2(CCNCC2)c2cc(Cl)ccc21 | -9.74%
68 | COC(=O)N1CC2(CCNCC2)c2cc(Cl)ccc21 | -7.27%
69 | C[C@@H](N)C(=O)N1CC2(CCNCC2)c2cc(Cl)ccc21 | 0.763%
70 | Cc1ccc(CN2CCc3nnc(CN4CCCC4=O)n3CC2)o1 | -3.79%
71 | CNC(=O)CN1CCCC12CCN(C(=O)c1cccc(F)c1)CC2 | 24.1%
72 | CC[C@@H]1N(Cc2ccc(F)cc2)CCC[C@]12CCC(=O)N2C | -9.15%
73 | COc1ccc(CN2CCC3(CC2)CC(CC(=O)NC(C)C)CO3)cc1 (stereo not drawn) | -14.4%
74 | CN(C)C(=O)N1CCC2(CCCN(CCOc3ccccc3)C2)C1 (stereo not drawn) | -14.6%
75 | Cn1cccc1C(=O)N1CCC2(CC1)CC(N1CCOCC1)C2 | -12.5%
76 | CN(C)C(=O)CN1C(=O)CCC12CCN(Cc1cccs1)CC2 | 9.34%
77 | O=C(C1CCCO1)N1C[C@@H]2CCN(c3cnccn3)C[C@@H]2C1 (stereo partly drawn) | -9.71%
78 | O=C(c1cccc(F)c1)N1CCC2(CC1)CC(N1CCOCC1)C2 | -14.8%
79 | CC[C@@H]1N(Cc2ccc(C)s2)CCC[C@]12CCC(=O)N2C | -11.2%
80 | CN(C)CCN1CCC2(CCN(C(=O)c3cccc(F)c3)CC2)C1=O | 15.4%
81 | CC(=O)N1CCN(Cc2nccs2)CC2(CC(=O)N(C)C2)C1 (stereo not drawn) | -11.2%
82 | CC(=O)N1CCN(Cc2cccs2)CC2(CC(=O)N(C)C2)C1 (stereo not drawn) | -9.26%
83 | COc1cccc(CN2CCC3(CC2)CCN(C(=O)[C@@H]2CCCO2)C3)c1 | -8.83%
84 | CCN1CCC2(CCN(c3ncccn3)CC2)C1=O | -8.88%
85 | O=C(CC1CC1)N1CCC2(CC1)CN(Cc1cccnc1)C(=O)CO2 | -12.2%
86 | Cc1noc(C)c1CN1CCCC2(CCN(CC3CCCC3)C2)C1 (stereo not drawn) | -3.39%
87 | c1ccc(N2CCCC3(CCN(Cc4ccsc4)C3)C2)nc1 (stereo not drawn) | -7.47%
88 | Cc1cnc(N2CCC3(CCN(CC4CCCC4)C3=O)CC2)nc1 | -11%

Row | Structure (SMILES) | cytotoxicity at 70.5 h
89 | O=C1N(CC2CCCC2)CCC12CCN(c1ncc(F)cn1)CC2 | -7.22%
90 | CCN1CCOCC12CCN(C(=O)C1CCCC1)CC2 | -0.25%
91 | C[C@@H]1C(=O)NC[C@H]2CN(Cc3ccc4c(c3)OCO4)C[C@H]21 | -10.2%
92 | C[C@H]1C(=O)NC[C@H]2CN(CCc3ccccc3)C[C@H]21 | -9.77%
93 | Cc1occc1C(=O)N1CCC2(CCCN(Cc3cccs3)C2)C1 (stereo not drawn) | 0.121%
94 | COc1cccc(CC(=O)N2CCN(C)c3ncccc3C2)c1 | 1.87%
95 | COCC1CN(Cc2ccc(OC)cc2)Cc2nnn(CC3CC3)c21 (stereo not drawn) | -4.99%
96 | Fc1cccc(-c2nnn3c2COC(CNCc2ccsc2)C3)c1 (stereo not drawn) | 0.277%
97 | CNC(=O)[C@H]1C[C@@H]2CN(S(=O)(=O)c3cccc(C)c3)C[C@@H]2N1C | 2.15%
98 | Cc1ccc(CN2C[C@@H]3C[C@H](C(=O)NCC4CC4)N(C)[C@@H]3C2)o1 | 10.1%
99 | CCc1ccc(CN2CC[C@H]3[C@H]2CC(=O)N3Cc2cccc(C)n2)o1 | -7.64%
100 | CN(C)CCN1CCCC12CCN(C(=O)c1ccco1)CC2 | -6.82%
101 | CNC(=O)[C@@H]1C[C@H]2CN(Cc3ccc(C)s3)C[C@H]2N1C(C)=O | -1.67%
102 | Cc1ccccc1C(=O)N1CCC2(CCCN2CCN(C)C)CC1 | -9.86%
103 | Cc1cccc(CN2C(=O)CCC23CCNCC3)n1 | -9.48%
104 | O=C(Cc1cccnc1)N1CCC2(CC1)CCN(C1CCOCC1)CC2 | -5.53%
105 | CN(C)C(=O)COCc1cncc2c1CCN(Cc1ccccc1)C2 | -3.3%
106 | O=C(Cc1cccnc1)N1CCC2(CC1)CCN(C1CCOC1)C2 (stereo not drawn) | 8.42%
107 | Cn1ccnc1CN1CCC2(CC1)CN(c1ccccn1)CCO2 | 8.31%
108 | CN1CCN(Cc2ccncc2)C(=O)C12CCN(Cc1ccsc1)CC2 | 2.26%
